Structures are written as SMILES.

This is an account of results in patent US8084621B2, “3-Pyrrolo[b]cyclohexylene-2-dihydroindolinone derivatives and uses thereof” (Jiangsu Simcere Pharmaceutical R&D Co. Ltd., priority 2006, dated 2011).

For the experiment, the target named is T1, VEGFR-2 (Homo sapiens, UniProt P35968).
T1 construct: purchased Cell Signaling Technology CO
Briefly: Protein kinase activity by ELISA in vitro, VEGFR-2. It is filed as biochemical. The note with it: read-out: IC50 of the VEGF Receptor Kinase. The protocol: An ELISA (Enzyme-Linked Immunosorbent Sandwich Assay) procedure may be used to detect and measure the level of protein tyrosine kinase activity. […] According to the principle of ELISA, a monoclonal antibody can react with phosphorylated substrate specially, so biotin-labeled substrate is binded to streptavidin-coated ELISA plate, and then binded to a HRP-labeled goat anti-mouse antibody. Finally TMB is added for a color reaction and the value of A450-A630 is read by ELISA plate reader. The OD value can reflect the inhibitory activity of the VEGFR-2, PDGFR-β, c-Kit tyrosine kinases etc. treated with the test compounds at the different concentrations. So, the assay may be used to measure the inhibition ratio of the compounds for the tyrosine kinase activity. Similar assays can be designed along the same lines for any PK using techniques well known in the art.
According to the principle of ELISA, a monoclonal antibody can react with phosphorylated substrate specially, so biotin-labeled substrate is binded to streptavidin-coated ELISA plate, and then binded to a HRP-labeled goat anti-mouse antibody. Finally TMB is added for a color reaction and the value of A450-A630 is read by ELISA plate reader. The OD value can reflect the inhibitory activity of the VEGFR-2, PDGFR-β c-Kit tyrosine kinases treated with the test compounds at the different concentrations. So, the assay may be used to measure the inhibition ratio of the compounds for the tyrosine kinase activity. Similar assays can be designed along the same lines for any PK using techniques well known in the art.
VEGF Receptor 2, PDGF Receptor-beta and c-kit kinase assay kit (include kinase, 1.25M DTT, substrate peptide, 10 mM ATP, P-Tyr-100 Mouse antibody, 4×HTScan tyrosine kinase buffer), Cell Signaling Technology CO.; HRP labeled goat anti mouse IgG, Protein Tech CO.; TMB, Pierce CO.; Streptavidin Microtitration Plate, Greiner Bio-one CO.; Infinite M200 Reader, Tecan CO.
1.2.1 Immediately transfer enzyme from −80° C. to ice. Allow enzyme to thaw on ice then at 4° C. and centrifugate transiently to the bottom of centrifuge tube, then lay back on ice quickly
1.2.2 Add 10 μl of DTT (1.25 M) to 2.5 ml of 4×HTScan tyrosine kinase buffer (240 mM HEPES pH 7.5, 20 mM MgCl2, 20 mM MnCl2, 12 μM Na3VO4). Transfer 0.6 ml of DTT/Kinase buffer to each enzyme tube to make 4× reaction Cocktail. Incubate 12.5 μl of the 4× reaction cocktail with 12.5 μl/well prediluted compound of interest for 5 minutes at room temperature, and set blank control, free-enzyme control, negative control and positive control. 1.2.3 Add 10 μl 10 mM ATP to 1.25 ml 6 μM substrate peptide. Dilute the mixture with dH20 to 2.5 ml to make 2×ATP/substrate cocktail. Add 25 μl of 2×ATP/substrate cocktail to 25 μl/well preincubated reaction cocktail/compound. Incubate reaction plate at room temperature for 30 minutes. 1.2.4 Add 50 μl/well stop Buffer (50 mM EDTA, pH 8) to stop the reaction. Transfer 25 μl of each reaction and 75 μl dH2O/well to a 96-well streptavidin coated plate and incubate at room temperature for 60 minutes. Wash three times with 200 μl/well PBS/T(1×PBS, 0.05% Tween-20). 1.2.5 Dilute primary antibody, Phospho-Tyrosine mAb (P-Tyr-100), 1:500 in PBS/T with 1% BSA. Add 100 μl/well primary antibody. Incubate at room temperature for 60 minutes. Wash three times with 200 μl/well PBS/T(1×PBS, 0.05% Tween-20). 1.2.6 Prepare appropriate dilution of HRP labeled secondary antibody, 1:500 in PBS/T with 1% BSA. Add 100 μl/well secondary antibody solution. Incubate at room temperature for 30 minutes. Wash five times with 200 μl/well PBS/T 1.2.7 Add 100 μl/well TMB substrate and incubate at room temperature for 1-10 minutes. Add 50 μl 2M H2SO4 to stop the color reaction. Read the absorbance of A450-A630 with the Infinite M200 microtiter plate reader. 1.2.8 Calculate the inhibition ratio with the following formula: […]

T1 sequence (P35968 20-1356): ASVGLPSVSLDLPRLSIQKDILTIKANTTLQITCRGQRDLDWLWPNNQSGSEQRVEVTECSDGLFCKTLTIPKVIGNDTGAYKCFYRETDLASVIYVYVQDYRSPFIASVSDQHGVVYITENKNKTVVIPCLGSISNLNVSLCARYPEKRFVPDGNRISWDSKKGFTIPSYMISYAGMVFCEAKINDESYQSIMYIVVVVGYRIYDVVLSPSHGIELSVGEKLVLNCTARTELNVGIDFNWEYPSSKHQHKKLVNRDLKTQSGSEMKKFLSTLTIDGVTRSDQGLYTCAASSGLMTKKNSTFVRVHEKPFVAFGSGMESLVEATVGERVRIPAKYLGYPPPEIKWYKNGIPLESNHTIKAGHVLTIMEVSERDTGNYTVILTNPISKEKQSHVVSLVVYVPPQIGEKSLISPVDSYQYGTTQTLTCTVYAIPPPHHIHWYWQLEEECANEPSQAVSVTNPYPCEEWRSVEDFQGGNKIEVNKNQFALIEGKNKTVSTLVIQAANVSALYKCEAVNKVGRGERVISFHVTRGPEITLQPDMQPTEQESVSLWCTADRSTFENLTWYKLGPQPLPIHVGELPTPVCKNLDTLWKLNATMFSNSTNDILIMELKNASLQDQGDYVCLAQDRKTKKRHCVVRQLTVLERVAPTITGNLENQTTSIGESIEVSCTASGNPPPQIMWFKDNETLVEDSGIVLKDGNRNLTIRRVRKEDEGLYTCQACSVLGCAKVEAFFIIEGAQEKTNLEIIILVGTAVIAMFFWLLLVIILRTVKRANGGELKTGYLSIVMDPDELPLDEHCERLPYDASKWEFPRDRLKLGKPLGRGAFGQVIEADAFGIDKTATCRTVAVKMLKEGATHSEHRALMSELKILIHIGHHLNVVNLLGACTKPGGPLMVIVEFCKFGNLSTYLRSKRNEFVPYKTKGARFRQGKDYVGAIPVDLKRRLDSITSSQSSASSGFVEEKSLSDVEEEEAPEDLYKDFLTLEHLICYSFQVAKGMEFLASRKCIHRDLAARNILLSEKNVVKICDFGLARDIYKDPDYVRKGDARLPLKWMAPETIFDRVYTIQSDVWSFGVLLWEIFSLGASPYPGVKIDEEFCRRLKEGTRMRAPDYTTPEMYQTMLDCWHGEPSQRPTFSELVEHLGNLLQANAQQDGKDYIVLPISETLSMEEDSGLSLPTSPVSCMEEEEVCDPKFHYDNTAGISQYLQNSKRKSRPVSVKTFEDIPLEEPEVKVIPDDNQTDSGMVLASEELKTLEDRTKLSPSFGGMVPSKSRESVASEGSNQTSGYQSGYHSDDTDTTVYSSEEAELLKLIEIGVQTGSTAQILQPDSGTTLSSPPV

As to `Cc1[nH]c2c(c1C(=O)NCCN1CCOCC1)CCC/C2=C1/C(=O)Nc2ccc(Cl)cc21` [I-19, N-(2-morpholinoethyl)-2-methyl-7-[1,2-dihydro-5-chloro-2-oxo-3H-indol-(Z)-3-ylidene]-4,5,6,7-tetrahydro-1H-indole-3-carboxamide], the IC50 (as a rule, the concentration needed to halve the response being measured) worked out at 31 nM.
To `Cc1[nH]c2c(c1C(=O)NCCCN1CCOCC1)CCC/C2=C1/C(=O)Nc2ccc(F)cc21` [I-21, N-(3-morpholinopropyl)-2-methyl-7-[1,2-dihydro-5-fluoro-2-oxo-3H-indol-(Z)-3-ylidene]-4,5,6,7-tetrahydro-1H-indole-3-carboxamide] belongs 27 nM; to `Cc1[nH]c2c(c1C(=O)NCCN1CCCCC1)CCC/C2=C1/C(=O)Nc2ccc(F)cc21` [I-26, N-(2-(piperidin-1-yl)ethyl)-2-methyl-7-[1,2-dihydro-5-fluoro-2-oxo-3H-indol-(Z)-3-ylidene]-4,5,6,7-tetrahydro-1H-indole-3-carboxamide], 9.1 nM; to `CCN(CC)CCNC(=O)c1c(C)[nH]c2c1CCC/C2=C1/C(=O)Nc2c(C)cc(C)cc21` [I-34, N-(2-(diethylamino)ethyl)-2-methyl-7-[1,2-dihydro-5,7-dimethyl-2-oxo-3H-indol-(Z)-3-ylidene]-4,5,6,7-tetrahydro-1H-indole-3-carboxamide], 11 nM.
The value for `CCN(CC)CCNC(=O)c1c(C)[nH]c2c1CCC/C2=C1/C(=O)Nc2ccc(Br)cc21` [I-36, N-(2-(diethylamino)ethyl)-2-methyl-7-[1,2-dihydro-5-bromo-2-oxo-3H-indol-(Z)-3-ylidene]-4,5,6,7-tetrahydro-1H-indole-3-carboxamide] was 6.3 nM.
The value for `CCN(CC)CCNC(=O)c1c(C)[nH]c2c1CCC/C2=C1/C(=O)Nc2c(F)cccc21` [I-40, N-(2-(diethylamino)ethyl)-2-methyl-7-[1,2-dihydro-7-fluoro-2-oxo-3H-indol-(Z)-3-ylidene]-4,5,6,7-tetrahydro-1H-indole-3-carboxamide] was 82 nM; that for `CCN(CC)CCNC(=O)c1c(C)[nH]c2c1CCC/C2=C1/C(=O)Nc2ccc(C(=O)O)cc21` [I-44, N-(2-(diethylamino)ethyl)-2-methyl-7-[1,2-dihydro-5-carboxyl-2-oxo-3H-indol-(Z)-3-ylidene]-4,5,6,7-tetrahydro-1H-indole-3-carboxamide] was 6.8 nM; that for `CCN(CC)CCNC(=O)c1c(C)[nH]c2c1CCC/C2=C1/C(=O)Nc2ccc(NC(C)=O)cc21` [I-45] was 8 nM.
As for `CCN(CC)CCNC(=O)c1c(C)[nH]c2c1CCC/C2=C1/C(=O)Nc2cc(Cl)ccc21` [I-46, N-(2-(diethylamino)ethyl)-2-methyl-7-[1,2-dihydro-6-chloro-2-oxo-3H-indol-(Z)-3-ylidene]-4,5,6,7-tetrahydro-1H-indole-3-carboxamide], the IC50 worked out at 11 nM.
As for `CCN(CC)CCNC(=O)c1c(C)[nH]c2c1CCC/C2=C1/C(=O)Nc2cccc(F)c21` [I-49, N-(2-(diethylamino)ethyl)-2-methyl-7-[1,2-dihydro-4-fluoro-2-oxo-3H-indol-(Z)-3-ylidene]-4,5,6,7-tetrahydro-1H-indole-3-carboxamide], the IC50 is 12 nM.
The value for `CCN(CC)CCNC(=O)c1c(C)[nH]c2c1CCC/C2=C1/C(=O)Nc2ccc(C(=O)Nc3ccc(F)cc3)cc21` [I-51, N-(2-(diethylamino)ethyl)-2-methyl-7-[N-(4-fluorophenyl)-5-carboxamide-1,2-dihydro-2-oxo-3H-indol-(Z)-3-ylidene]-4,5,6,7-tetrahydro-1H-indole-3-carboxamide] was 54 nM; that for `CCN(CC)CCNC(=O)c1c(C)[nH]c2c1CCC/C2=C1/C(=O)Nc2ccc(OC)cc21` [I-53, N-(2-(diethylamino)ethyl)-2-methyl-7-[1,2-dihydro-5-methoxy-2-oxo-3H-indol-(Z)-3-ylidene]-4,5,6,7-tetrahydro-1H-indole-3-carboxamide] was 13 nM.
To `CCN(CC)CCNC(=O)c1c(C)[nH]c2c1CCC/C2=C1/C(=O)Nc2ccc(S(=O)(=O)NC)cc21` [I-55, N-(2-(diethylamino)ethyl)-2-methyl-7-[N-methyl-1,2-dihydro-2-oxo-3H-indol-5-sulfonamide-(Z)-3-ylidene]-4,5,6,7-tetrahydro-1H-indole-3-carboxamide] belongs 19 nM; to `Cc1[nH]c2c(c1C(=O)NCCc1ccccn1)CCC/C2=C1/C(=O)Nc2ccc(F)cc21` [I-56, N-(2-(pyridin-2-yl)ethyl)-2-methyl-7-[1,2-dihydro-5-fluoro-2-oxo-3H-indol-(Z)-3-ylidene]-4,5,6,7-tetrahydro-1H-indole-3-carboxamide], 17 nM; to `Cc1[nH]c2c(c1C(=O)N(C)CCN(C)C)CCC/C2=C1/C(=O)Nc2ccc(F)cc21` [I-57, N-(2-(dimethylamino)ethyl)-N,2-dimethyl-7-[1,2-dihydro-5-fluoro-2-oxo-3H-indol-(Z)-3-ylidene]-4,5,6,7-tetrahydro-1H-indole-3-carboxamide], 13 nM.
To `Cc1[nH]c2c(c1C(=O)N1CCC[C@H]1CN1CCCC1)CCC/C2=C1/C(=O)Nc2ccc(F)cc21` [I-60] belongs 14 nM.
